# Results reported in patent US11179474B1, “Nanoparticle-based liver-targeting therapy and imaging” (priority 2015, dated 2021).
# Where no end group is shown, it is not given here.
# B1: GNP-GalC2(50)-AL(50)-(Ac)YFLTTRQ (peptide)
# peptide: YFLTTRQ
# modifications: not fully specified (N-terminus); printed as GNP-GalC2(50)-AL(50)-(Ac)YFLTTRQ; also: linked via amino linker NH2-EG6-SH to gold nanoparticle with galactose-C2 corona
# notes: Gold nanoparticle with a corona of galactose-C2-SH and amino linker in approximately 50:50 ratio; also called Au@GalC2:AL:AL-(Ac)-YFLTTRQ
# B2: GNP-GalC2-HSPEG8COOH-HSPEG8CO… ″high loading″ (peptide)
# peptide: RLNVGGTYFLTTRQ
# modifications: not fully specified (N-terminus); also: on gold nanoparticle with galactose-C2 corona
# notes: Gold nanoparticle with a corona of galactose-C2 and HSPEG8COOH ligands; Approximately 4 peptides per nanoparticle core, so the copy number is approximate; also called "high loading" Au@Gal-C2:HSPEG8COOH:HSPEG8CO… GNPs
# B3: GNP-GalC2-HSPEG8COOH-HSPEG8CO… ″low loading″ (peptide)
# peptide: RLNVGGTYFLTTRQ
# modifications: not fully specified (N-terminus); printed as GNP-GalC2-HSPEG8COOH-HSPEG8CONHRLNVGGTYFLTTRQ ″low loading″; also: on gold nanoparticle with galactose-C2 corona
# notes: Same construct as the high loading GNP but with fewer peptides per nanoparticle; also called "low loading" Au@Gal-C2:HSPEG8COOH:HSPEG8CO… GNPs
# Experiments:
# HepG2 = assay: MTT cell viability assay, payload-carrying LacLL nanoparticles vs free drug; type: cell-based, human; conditions: for IC50: HepG2, concentration based on drug amount, FIG. 7: 72 h after treatment
# Procedure: The human hepatocellular carcinoma cell line HepG2 was used in the assay.
# HepG2 cells were grown in a T-75 flask. For the transfer of the cell the medium was removed from the flask and the cells were trypsinated for 5 minutes. The cells were collected in a Falcon tube and diluted with complete cell medium. The cell counting was conducted in a Neubauer chamber. A cell solution was prepared to seed 4000 cells per well (200 μL per well). The microtiter plate was incubated for 24 h at 37° C.
# For each NP and drug, formulations in cell medium were prepared. The compounds were tested in different concentrations (0.01, 0.05, 0.2, 1, 5, 25 and 125 μM based on drug amount). For the treatment, the cell medium was removed from all wells and exchanged for drug formulations. 200 μl of treatments per triplicate was added to each well. The microtiter plates were incubated for 24 h, 48 h and 72 h at 37° C.
# 1.5 mL MTT solution (8.0 mg in 1.6 mL DMSO) was diluted with complete cell medium (phenol-red free). The treatment cell medium was removed from the microtiter plate, the wells were washed with 100 μL PBS and 100 μL of the MTT reactive solution was added to each well. After one hour incubation at 37° C. the MTT solution was removed and 100 μL DMSO was added to dissolve the formazan dye. Absorbance was measured at 570 nm.
# Data were analysed using OriginPro8. The normalized data were plotted and the curve was fitted using a non-linear regression curve fit (sigmoidal dose-response curve with variable slope). The Absolute IC50 values were obtained by interpolation.
# HCC cells = assay: In vitro targeting of GNPs to HCC cells (counts per field at 20x magnification); type: cell-based; conditions: relative to base GNP lacking the peptide
# Source text: (SEQ ID NO: 1), via its N-terminus (approx. 4 peptide molecules per nanoparticle).
# Several base/peptide targeted GNPs were screened in vitro. GNPs having a mixed corona comprising galactose-C2-SH (Gal-C2) ligands and HSPEG8COOH were synthesised according to methodology analogous to that described above in Examples 1 and 2, with however galactose-C2-SH replacing glucose-C2-SH and HSPEG8COOH (also abbreviated SH-EG6-COOH or SH—(OCH2CH2)6-COOH) replacing the amino linker NH2-EG6-SH.
# The glypican-3 peptide described in U.S. Pat. No. 8,388,937B2 (the contents of which are expressly incorporated herein by reference)—see SEQ ID NO: 1 thereof, which has the amino acid sequence: […] (SEQ ID NO: 1) was linked to the terminal COOH group of a proportion of the HSPEG8COOH ligands via the N-terminus of said peptide. In a “high loading” GNP construct (see row 1 in the table below), approximately 4 peptides were linked per nanoparticle core. The “high loading” Au@Gal-C2:HSPEG8COOH:HSPEG8CONH[…] The “low loading” Au@Gal-C2:HSPEG8COOH:HSPEG8CONH[…]
# [1] = molecular target: T1, glypican-3 (on HCC cells) (UniProt P51654 25-554); assay: in vitro targeting of GNPs to HCC cells, relative to base nanoparticle lacking the peptide
# T1 construct: whole, on cells; also called GLY-3
# [2] = molecular target: T1, glypican-3 (on HCC cells); assay: in vitro targeting of GNPs to HCC cells, counts per field at 20x magnification, relative to base GNP lacking the peptide
# [3] = molecular target: T1, glypican-3 (on HCC cells); assay: in vitro targeting of GNPs to HCC cells, relative to base GNP lacking the peptide
# T1 sequence (P51654 25-554 limits assumed, form in doubt): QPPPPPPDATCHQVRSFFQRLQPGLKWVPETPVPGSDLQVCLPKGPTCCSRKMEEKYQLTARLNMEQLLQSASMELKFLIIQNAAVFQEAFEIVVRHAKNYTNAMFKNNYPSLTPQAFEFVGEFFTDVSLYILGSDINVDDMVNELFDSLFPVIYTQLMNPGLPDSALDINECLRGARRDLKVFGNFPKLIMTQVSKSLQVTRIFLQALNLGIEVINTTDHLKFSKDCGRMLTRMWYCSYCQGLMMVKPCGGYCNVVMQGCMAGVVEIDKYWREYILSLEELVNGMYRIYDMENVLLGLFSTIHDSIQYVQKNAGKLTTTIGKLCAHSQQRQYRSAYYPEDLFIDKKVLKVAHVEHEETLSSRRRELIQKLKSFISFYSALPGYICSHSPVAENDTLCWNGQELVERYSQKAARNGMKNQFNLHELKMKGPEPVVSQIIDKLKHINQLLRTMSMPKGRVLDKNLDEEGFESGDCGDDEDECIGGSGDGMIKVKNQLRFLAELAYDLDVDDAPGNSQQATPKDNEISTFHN
molecule,measurement,setting,value
"COc1cccc2c1C(=O)c1c(O)c3c(c(O)c1C2=O)C[C@@](O)(C(=O)CO)C[C@@H]3O[C@H]1C[C@H](N)[C@H](O)[C@H](C)O1 [Doxorubicin, doxorubicin]","cytotoxicity, free drug compared with pay-loaded nanoparticle","HepG2; HepG2, MTT",slightly higher cytotoxicity
GNP-GalC2(50)-AL(50)-(Ac)YFLTTRQ,Fold-targeting (over base particle),HCC cells; listed as Au@GalC2:AL:AL-(Ac)-YFLTTRQ,approximately 5 fold
GNP-GalC2-HSPEG8COOH-HSPEG8CONHRLNVGGTYFLTTRQ ″high loading″ (not fully specified (N-terminus); also: on gold nanoparticle with galactose-C2 corona),Fold-targeting (over base particle),HCC cells; listed as “high loading” Au@Gal-C2:HSPEG8COOH:HSPEG8CONHRLNVGGTYFLTTRQ,approximately 7 fold
GNP-GalC2-HSPEG8COOH-HSPEG8CONHRLNVGGTYFLTTRQ ″low loading″ (not fully specified (N-terminus); printed as GNP-GalC2-HSPEG8COOH-HSPEG8CONHRLNVGGTYFLTTRQ ″low loading″; also: on gold nanoparticle with galactose-C2 corona),Fold-targeting (over base particle),HCC cells; listed as “low loading” Au@Gal-C2:HSPEG8COOH:HSPEG8CONHRLNVGGTYFLTTRQ,approximately 4.6 fold
platinum-(IV)-succinate,IC50,HepG2,38.6 µM
same,IC50,HepG2; listed as Pt(IV)-succinate,38.6 µM
B1,Fold-targeting (over base particle),[1],5 fold
B2,Fold-targeting (over base particle),[2],7.1 fold
B3,Fold-targeting (over base particle),[3],4.6 fold
